Measurements reported in the supplement of paper PMC11061612.

Columns and labels:
Capivasertib = compound: C1CN(CCC1(C(=O)N[C@@H](CCO)C2=CC=C(C=C2)Cl)N)C3=NC=NC4=C3C=CN4 [Capivasertib]
In short: (§1)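 Cancer cell lines were seeded in 1536-well plates in 7.5 μl DMEM/F12 or RPMI with 10% FBS, held 24 hours at 37°C and 5% CO2, then dosed for 72 hours (final DMSO typically 0.2%). Viability was read by CellTiter-Glo 2.0 luminescence and scaled between blank-well and DMSO-well means. The single-agent IC50 comes from dose responses fitted to a two-parameter logistic curve with a non-linear mixed effects model.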

AZD1775 = compound: C=CCn1c(=O)c2cnc(Nc3ccc(N4CCN(C)CC4)cc3)nc2n1-c1cccc(C(C)(C)O)n1 [AZD1775]; settings: max 3 µM
In short: as §1

Trametinib = compound: CC(=O)Nc1cccc(-n2c(=O)n(C3CC3)c(=O)c3c(Nc4ccc(I)cc4F)n(C)c(=O)c(C)c32)c1 [Trametinib]; settings: max 1 µM
In short: as §1

Palbociclib = compound: CC(=O)c1c(C)c2cnc(Nc3ccc(N4CCNCC4)cn3)nc2n(C2CCCC2)c1=O [Palbociclib]; settings: max 10 µM
In short: as §1

AZD1390 = compound: CC(C)n1c(=O)n(C)c2cnc3cc(F)c(-c4ccc(OCCCN5CCCCC5)nc4)cc3c21 [AZD1390]; settings: max 0.3 µM
In short: as §1

Venetoclax = compound: CC1(C)CCC(CN2CCN(c3ccc(C(=O)NS(=O)(=O)c4ccc(NCC5CCOCC5)c([N+](=O)[O-])c4)c(Oc4cnc5[nH]ccc5c4)c3)CC2)=C(c2ccc(Cl)cc2)C1 [Venetoclax]; settings: max 1 µM
In short: as §1

Dasatinib = compound: CC1=C(C(=CC=C1)Cl)NC(=O)C2=CN=C(S2)NC3=CC(=NC(=N3)C)N4CCN(CC4)CCO [Dasatinib]; settings: max 2 µM
In short: as §1

SG3199 = compound: CC1=CN2[C@@H](C1)C=NC3=CC(=C(C=C3C2=O)OC)OCCCCCOC4=C(C=C5C(=C4)N=C[C@@H]6CC(=CN6C5=O)C)OC [SG3199]; settings: max 0.001 µM
In short: as §1

AZD2811 = compound: CCN(CCO)CCCOc1ccc2c(Nc3cc(CC(=O)Nc4cccc(F)c4)[nH]n3)ncnc2c1 [AZD2811]; settings: max 1 µM
In short: as §1

SN-38 = compound: CCc1c2c(nc3ccc(O)cc13)-c1cc3c(c(=O)n1C2)COC(=O)[C@]3(O)CC [SN-38]; settings: max 0.3 µM
In short: as §1

AZD0156 = compound: CN(C)CCCOc1ccc(-c2ccc3ncc4c(c3c2)n(C2CCOCC2)c(=O)n4C)cn1 [AZD0156]; settings: max 3 µM
In short: as §1

AZD4320 = compound: CN(CC[C@H](CSC1=CC=CC=C1)NC2=C(C=C(C=C2)S(=O)(=O)NC(=O)C3=CC=C(C=C3)N4CCC(CC4)[C@H](C5=CC=CC=C5C6=CC=C(C=C6)Cl)O)S(=O)(=O)C(F)(F)F)CCO [AZD4320]; settings: max 1 µM
In short: as §1

Alisertib = compound: COc1cc(Nc2ncc3c(n2)-c2ccc(Cl)cc2C(c2c(F)cccc2OC)=NC3)ccc1C(=O)O [Alisertib]; settings: max 10 µM
In short: as §1

Gefitinib = compound: COc1cc2ncnc(Nc3ccc(F)c(Cl)c3)c2cc1OCCCN1CCOCC1 [Gefitinib]; settings: max 10 µM
In short: as §1

Prexasertib = compound: COc1cccc(OCCCN)c1-c1cc(Nc2cnc(C#N)cn2)n[nH]1 [Prexasertib]; settings: max 1 µM
In short: as §1

Doxorubicin = compound: COc1cccc2c1C(=O)c1c(O)c3c(c(O)c1C2=O)C[C@@](O)(C(=O)CO)C[C@@H]3O[C@H]1C[C@H](N)[C@H](O)[C@H](C)O1 [Doxorubicin]; settings: max 1 µM
In short: as §1

AZD5153 = compound: COc1nnc2ccc(N3CCC(c4ccc(OCCN5CCN(C)C(=O)[C@H]5C)cc4)CC3)nn12 [AZD5153]; settings: max 1 µM
In short: as §1

Lapatinib = compound: CS(=O)(=O)CCNCc1ccc(-c2ccc3ncnc(Nc4ccc(OCc5cccc(F)c5)c(Cl)c4)c3c2)o1 [Lapatinib]; settings: max 10 µM
In short: as §1

AZD8186 = compound: C[C@@H](Nc1cc(F)cc(F)c1)c1cc(C(=O)N(C)C)cc2c(=O)cc(N3CCOCC3)oc12 [AZD8186]; settings: max 3 µM
In short: as §1

Crizotinib = compound: C[C@@H](Oc1cc(-c2cnn(C3CCNCC3)c2)cnc1N)c1c(Cl)ccc(F)c1Cl [Crizotinib]; settings: max 10 µM
In short: as §1

Savolitinib = compound: C[C@@H](c1ccc2nccn2c1)n1nnc2ncc(-c3cnn(C)c3)nc21 [Savolitinib]; settings: max 1 µM
In short: as §1

AZD6738 = compound: C[C@@H]1COCCN1C2=NC(=NC(=C2)C3(CC3)[S@](=N)(=O)C)C4=C5C=CNC5=NC=C4 [AZD6738]; settings: max 10 µM
In short: as §1

AZD5991 = compound: Cc1c2c(nn1C)CSCc1cc(n(C)n1)CSc1cc(c3ccccc3c1)OCCCc1c(C(=O)O)n(C)c3c-2c(Cl)ccc13 [AZD5991]; settings: max 1 µM
In short: as §1

AZD7648 = compound: Cc1cc2ncnn2cc1Nc1ncc2c(n1)n(C1CCOCC1)c(=O)n2C [AZD7648]; settings: max 10 µM
In short: as §1

Taselisib = compound: Cc1nc(-c2cn3c(n2)-c2ccc(-c4cnn(C(C)(C)C(N)=O)c4)cc2OCC3)n(C(C)C)n1 [Taselisib]; settings: max 10 µM
In short: as §1

Selumetinib = compound: Cn1cnc2c(F)c(Nc3ccc(Br)cc3Cl)c(C(=O)NOCCO)cc21 [Selumetinib]; settings: max 10 µM
In short: as §1

Olaparib = compound: O=C(c1cc(Cc2n[nH]c(=O)c3ccccc23)ccc1F)N1CCN(C(=O)C2CC2)CC1 [Olaparib]
In short: as §1

Cell Line | IC50, cell viability 72 h (Capivasertib; max 10 µM) | IC50, cell viability 72 h (AZD1775) | IC50, cell viability 72 h (Trametinib) | IC50, cell viability 72 h (Palbociclib) | IC50, cell viability 72 h (AZD1390) | IC50, cell viability 72 h (Venetoclax) | IC50, cell viability 72 h (Dasatinib) | IC50, cell viability 72 h (SG3199) | IC50, cell viability 72 h (AZD2811) | IC50, cell viability 72 h (SN-38) | IC50, cell viability 72 h (AZD0156) | IC50, cell viability 72 h (AZD4320) | IC50, cell viability 72 h (Alisertib) | IC50, cell viability 72 h (Gefitinib) | IC50, cell viability 72 h (Prexasertib) | IC50, cell viability 72 h (Doxorubicin) | IC50, cell viability 72 h (AZD5153) | IC50, cell viability 72 h (Lapatinib) | IC50, cell viability 72 h (AZD8186) | IC50, cell viability 72 h (Crizotinib) | IC50, cell viability 72 h (Savolitinib) | IC50, cell viability 72 h (AZD6738) | IC50, cell viability 72 h (AZD5991) | IC50, cell viability 72 h (AZD7648) | IC50, cell viability 72 h (Taselisib) | IC50, cell viability 72 h (Selumetinib) | IC50, cell viability 72 h (Olaparib; max 10 µM) | IC50, cell viability 72 h (Capivasertib; max 3 µM) | IC50, cell viability 72 h (Olaparib; max 3 µM)
697 (B-Lymphoblastic Leukemia) | 3240 nM | 149 nM | 662 nM | 263 nM | > 300 nM | 14.3 nM | 677 nM | > 1 nM | 14.6 nM | 3.34 nM | 2070 nM | 6.75 nM | 33.3 nM | > 10000 nM | 4.5 nM | 17.3 nM | 14.2 nM | 6950 nM | > 3000 nM | 1100 nM | > 1000 nM | 336 nM | 48.9 nM | 9410 nM | 3940 nM | > 10000 nM | 1410 nM | – | –
BB49-HNC (Head and Neck Carcinoma) | – | 309 nM | – | – | – | – | – | – | – | – | > 3000 nM | – | – | – | – | – | – | – | – | – | – | – | – | – | – | – | – | 1990 nM | > 3000 nM
C3A (Hepatocellular Carcinoma) | > 10000 nM | 2480 nM | 657 nM | > 10000 nM | > 300 nM | > 1000 nM | > 2000 nM | > 1 nM | > 1000 nM | 143 nM | > 3000 nM | > 1000 nM | > 10000 nM | > 10000 nM | 524 nM | > 1000 nM | > 1000 nM | > 10000 nM | > 3000 nM | > 10000 nM | > 1000 nM | > 10000 nM | > 1000 nM | > 10000 nM | > 10000 nM | 7960 nM | > 10000 nM | – | –
CAL-78 (Chondrosarcoma) | > 10000 nM | 898 nM | > 1000 nM | > 10000 nM | > 300 nM | > 1000 nM | > 2000 nM | > 1 nM | > 1000 nM | 54.1 nM | > 3000 nM | > 1000 nM | 1780 nM | > 10000 nM | 226 nM | > 1000 nM | > 1000 nM | > 10000 nM | > 3000 nM | > 10000 nM | > 1000 nM | > 10000 nM | 261 nM | > 10000 nM | > 10000 nM | > 10000 nM | > 10000 nM | – | –
CFPAC-1 (Pancreatic Carcinoma) | > 10000 nM | 1440 nM | > 1000 nM | > 10000 nM | > 300 nM | > 1000 nM | > 2000 nM | > 1 nM | > 1000 nM | 26.1 nM | > 3000 nM | > 1000 nM | > 10000 nM | > 10000 nM | 108 nM | > 1000 nM | > 1000 nM | > 10000 nM | > 3000 nM | > 10000 nM | > 1000 nM | > 10000 nM | > 1000 nM | > 10000 nM | 5770 nM | > 10000 nM | > 10000 nM | – | –
COR-L23 (Non-Small Cell Lung Carcinoma) | > 10000 nM | 591 nM | > 1000 nM | > 10000 nM | > 300 nM | > 1000 nM | > 2000 nM | > 1 nM | > 1000 nM | 131 nM | > 3000 nM | > 1000 nM | > 10000 nM | > 10000 nM | 216 nM | > 1000 nM | > 1000 nM | > 10000 nM | > 3000 nM | > 10000 nM | > 1000 nM | > 10000 nM | > 1000 nM | > 10000 nM | 5740 nM | > 10000 nM | > 10000 nM | – | –
CTV-1 (T-Lymphoblastic Leukemia) | 5880 nM | 280 nM | > 1000 nM | 1470 nM | > 300 nM | > 1000 nM | < 2 nM | > 1 nM | > 1000 nM | 3.52 nM | > 3000 nM | > 1000 nM | 199 nM | 4930 nM | 7.28 nM | 45.6 nM | 57.5 nM | > 10000 nM | > 3000 nM | 371 nM | > 1000 nM | 3920 nM | > 1000 nM | > 10000 nM | 3170 nM | > 10000 nM | > 10000 nM | – | –
DMS-273 (Small Cell Lung Carcinoma) | 916 nM | 1170 nM | > 1000 nM | > 10000 nM | > 300 nM | > 1000 nM | > 2000 nM | > 1 nM | 114 nM | 18.9 nM | > 3000 nM | > 1000 nM | 1060 nM | > 10000 nM | 32.4 nM | 458 nM | 117 nM | 7430 nM | 1480 nM | 3930 nM | > 1000 nM | 3450 nM | 201 nM | > 10000 nM | 5580 nM | > 10000 nM | > 10000 nM | – | –
EM-2 (Chronic Myelogenous Leukemia) | > 10000 nM | 295 nM | 350 nM | > 10000 nM | > 300 nM | > 1000 nM | 2.28 nM | > 1 nM | 21.9 nM | 5.12 nM | > 3000 nM | 34.2 nM | 1060 nM | > 10000 nM | 5.51 nM | 104 nM | 61.6 nM | > 10000 nM | > 3000 nM | 859 nM | > 1000 nM | 1630 nM | > 1000 nM | > 10000 nM | > 10000 nM | 5550 nM | > 10000 nM | – | –
HCC2157 (Breast Carcinoma) | 307 nM | > 3000 nM | > 1000 nM | > 10000 nM | > 300 nM | > 1000 nM | > 2000 nM | > 1 nM | 182 nM | 14.1 nM | > 3000 nM | 72.1 nM | 454 nM | 4410 nM | 22.5 nM | > 1000 nM | 12.6 nM | 60.2 nM | 667 nM | 4090 nM | > 1000 nM | 2490 nM | 24.4 nM | > 10000 nM | 222 nM | > 10000 nM | > 10000 nM | – | –
NB(TU)1-10 (Neuroblastoma) | – | 835 nM | – | – | – | – | – | > 1 nM | > 1000 nM | 17 nM | > 3000 nM | – | – | – | 8.06 nM | 468 nM | – | – | – | – | – | 6880 nM | – | > 10000 nM | – | – | > 10000 nM | > 3000 nM | –
